Laboratory results reported in PubChem BioAssay AID256 (DTP/NCI, 2004).
Several values for one entry are separate records, joined by “and”; a condition that tells them apart may be missing. Equal entries are not always repeated. Inconclusive results and toxic doses are left out.

System: CD2F1 mice, L1210 leukemia ip, survival T/C
Experiment: NCI In Vivo Anticancer Drug Screen. Data for tumor model L1210 Leukemia (intraperitoneal) in CD2F1 (CDF1) mice
Conditions: higher = longer survival
Summary of the method: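 In this screen, transplantable tumors were grown in mice given either the compound or its vehicle. Results were expressed as the treated measurement relative to the control measurement.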

Nc1nc([Se])c2ncn(C3OC(CO)C(O)C3O)c2n1 (stereo not given)
T/C (endpoint: mean survival time, dose: 1.0 mg/kg/injection, schedule: Q01DX009 (ip), vehicle: saline): 123 % of control
T/C (endpoint: mean survival time, dose: 2.0 mg/kg/injection, schedule: Q01DX009 (ip), vehicle: distilled water + Tween-80): 114 % of control
T/C (endpoint: mean survival time, dose: 2.0 mg/kg/injection, schedule: Q01DX009 (ip), vehicle: water): 119 % of control
T/C (endpoint: mean survival time, dose: 2.0 mg/kg/injection, schedule: Q04DX003 (ip), vehicle: DMSO): 117 % of control
T/C (endpoint: mean survival time, dose: 2.0 mg/kg/injection, schedule: Q04DX003 (ip), vehicle: clinical formulation): 116 % of control and 109 % of control
T/C (endpoint: mean survival time, dose: 2.0 mg/kg/injection, schedule: Q04DX003 (ip), vehicle: saline): 115 % of control and 119 % of control
T/C (endpoint: mean survival time, dose: 2.5 mg/kg/injection, schedule: Q01DX005 (iv), vehicle: water): 95 % of control
T/C (endpoint: mean survival time, dose: 4.0 mg/kg/injection, schedule: Q04DX003 (ip), vehicle: DMSO): 113 % of control
T/C (endpoint: mean survival time, dose: 4.0 mg/kg/injection, schedule: Q04DX003 (ip), vehicle: clinical formulation): 113 % of control
T/C (endpoint: mean survival time, dose: 5.0 mg/kg/injection, schedule: Q01DX005 (iv), vehicle: water): 113 % of control
T/C (endpoint: mean survival time, dose: 8.0 mg/kg/injection, schedule: Q04DX003 (ip), vehicle: clinical formulation): 115 % of control
T/C (endpoint: mean survival time, dose: 12.5 mg/kg/injection, schedule: Q01DX005 (ip), vehicle: saline): 169 % of control
T/C (endpoint: mean survival time, dose: 16.0 mg/kg/injection, schedule: Q01DX009 (ip), vehicle: distilled water + Tween-80): 150 % of control
T/C (endpoint: mean survival time, dose: 16.0 mg/kg/injection, schedule: Q01DX009 (ip), vehicle: water): 119 % of control
T/C (endpoint: mean survival time, dose: 25.0 mg/kg/injection, schedule: Q01DX005 (ip), vehicle: saline): 191 % of control
T/C (endpoint: mean survival time, dose: 32.0 mg/kg/injection, schedule: Q01DX009 (ip), vehicle: distilled water + Tween-80): 156 % of control
T/C (endpoint: mean survival time, dose: 32.0 mg/kg/injection, schedule: Q01DX009 (ip), vehicle: saline): 116 % of control and 117 % of control
T/C (endpoint: mean survival time, dose: 32.0 mg/kg/injection, schedule: Q01DX009 (ip), vehicle: water): 92 % of control
T/C (endpoint: mean survival time, dose: 40.0 mg/kg/injection, schedule: Q01DX005 (iv), vehicle: water): 151 % of control
T/C (endpoint: mean survival time, dose: 50.0 mg/kg/injection, schedule: Q01DX005 (ip), vehicle: saline): 187 % of control
T/C (endpoint: mean survival time, dose: 64.0 mg/kg/injection, schedule: Q01DX009 (ip), vehicle: saline): 87 % of control
T/C (endpoint: median survival time, dose: 1.0 mg/kg/injection, schedule: Q01DX009 (sc), vehicle: DMSO): 100 % of control
T/C (endpoint: median survival time, dose: 1.0 mg/kg/injection, schedule: Q03HX016 (ip), vehicle: DMSO): 153 % of control
T/C (endpoint: median survival time, dose: 1.0 mg/kg/injection, schedule: Q03HX024 (ip), vehicle: DMSO): 150 % of control
T/C (endpoint: median survival time, dose: 2.0 mg/kg/injection, schedule: Q01DX009 (ip), vehicle: DMSO): 172 % of control
T/C (endpoint: median survival time, dose: 2.0 mg/kg/injection, schedule: Q01DX009 (sc), vehicle: DMSO): 111 % of control
T/C (endpoint: median survival time, dose: 2.0 mg/kg/injection, schedule: Q03HX008 (ip), vehicle: DMSO): 171 % of control
T/C (endpoint: median survival time, dose: 2.0 mg/kg/injection, schedule: Q03HX016 (ip), vehicle: DMSO): 162 % of control
T/C (endpoint: median survival time, dose: 2.0 mg/kg/injection, schedule: Q03HX024 (ip), vehicle: DMSO): 178 % of control
T/C (endpoint: median survival time, dose: 4.0 mg/kg/injection, schedule: Q01DX009 (ip), vehicle: DMSO): 200 % of control
T/C (endpoint: median survival time, dose: 4.0 mg/kg/injection, schedule: Q01DX009 (oral), vehicle: DMSO): 107 % of control
T/C (endpoint: median survival time, dose: 4.0 mg/kg/injection, schedule: Q03HX008 (ip), vehicle: DMSO): 173 % of control
T/C (endpoint: median survival time, dose: 4.0 mg/kg/injection, schedule: Q03HX016 (ip), vehicle: DMSO): 185 % of control
T/C (endpoint: median survival time, dose: 4.0 mg/kg/injection, schedule: Q03HX024 (ip), vehicle: DMSO): 175 % of control
T/C (endpoint: median survival time, dose: 4.0 mg/kg/injection, schedule: Q08DX002 (ip), vehicle: DMSO): 123 % of control
T/C (endpoint: median survival time, dose: 8.0 mg/kg/injection, schedule: Q01DX001 (sc), vehicle: DMSO): 112 % of control
T/C (endpoint: median survival time, dose: 8.0 mg/kg/injection, schedule: Q01DX009 (ip), vehicle: DMSO): 175 % of control
T/C (endpoint: median survival time, dose: 8.0 mg/kg/injection, schedule: Q01DX009 (oral), vehicle: DMSO): 123 % of control
T/C (endpoint: median survival time, dose: 8.0 mg/kg/injection, schedule: Q01DX009 (sc), vehicle: DMSO): 166 % of control
T/C (endpoint: median survival time, dose: 8.0 mg/kg/injection, schedule: Q03HX008 (ip), vehicle: DMSO): 176 % of control
T/C (endpoint: median survival time, dose: 8.0 mg/kg/injection, schedule: Q03HX016 (ip), vehicle: DMSO): 176 % of control
T/C (endpoint: median survival time, dose: 8.0 mg/kg/injection, schedule: Q03HX024 (ip), vehicle: DMSO): 185 % of control
T/C (endpoint: median survival time, dose: 8.0 mg/kg/injection, schedule: Q04DX003 (ip), vehicle: DMSO): 166 % of control
T/C (endpoint: median survival time, dose: 16.0 mg/kg/injection, schedule: Q01DX001 (oral), vehicle: DMSO): 120 % of control
T/C (endpoint: median survival time, dose: 16.0 mg/kg/injection, schedule: Q01DX001 (sc), vehicle: DMSO): 121 % of control
T/C (endpoint: median survival time, dose: 16.0 mg/kg/injection, schedule: Q01DX009 (ip), vehicle: DMSO): 191 % of control
T/C (endpoint: median survival time, dose: 16.0 mg/kg/injection, schedule: Q01DX009 (oral), vehicle: DMSO): 158 % of control
T/C (endpoint: median survival time, dose: 16.0 mg/kg/injection, schedule: Q01DX009 (sc), vehicle: DMSO): 187 % of control
T/C (endpoint: median survival time, dose: 16.0 mg/kg/injection, schedule: Q04DX003 (ip), vehicle: DMSO): 178 % of control
T/C (endpoint: median survival time, dose: 16.0 mg/kg/injection, schedule: Q08DX002 (ip), vehicle: DMSO): 102 % of control
T/C (endpoint: median survival time, dose: 32.0 mg/kg/injection, schedule: Q01DX001 (oral), vehicle: DMSO): 117 % of control
T/C (endpoint: median survival time, dose: 32.0 mg/kg/injection, schedule: Q01DX009 (ip), vehicle: DMSO): 178 % of control
T/C (endpoint: median survival time, dose: 32.0 mg/kg/injection, schedule: Q01DX009 (oral), vehicle: DMSO): 167 % of control
T/C (endpoint: median survival time, dose: 32.0 mg/kg/injection, schedule: Q01DX009 (sc), vehicle: DMSO): 160 % of control
T/C (endpoint: median survival time, dose: 32.0 mg/kg/injection, schedule: Q04DX003 (ip), vehicle: DMSO): 183 % of control
T/C (endpoint: median survival time, dose: 64.0 mg/kg/injection, schedule: Q01DX009 (ip), vehicle: DMSO): 116 % of control
T/C (endpoint: median survival time, dose: 64.0 mg/kg/injection, schedule: Q01DX009 (oral), vehicle: DMSO): 160 % of control
T/C (endpoint: median survival time, dose: 64.0 mg/kg/injection, schedule: Q01DX009 (sc), vehicle: DMSO): 111 % of control
T/C (endpoint: median survival time, dose: 64.0 mg/kg/injection, schedule: Q04DX003 (ip), vehicle: DMSO): 191 % of control
T/C (endpoint: median survival time, dose: 128.0 mg/kg/injection, schedule: Q01DX001 (ip), vehicle: DMSO): 121 % of control

COc1ccncn1
T/C (endpoint: mean survival time, dose: 100.0 mg/kg/injection, schedule: Q04DX002 (ip), vehicle: saline with Tween-80): 98 % of control
T/C (endpoint: mean survival time, dose: 200.0 mg/kg/injection, schedule: Q04DX002 (ip), vehicle: saline with Tween-80): 95 % of control
T/C (endpoint: mean survival time, dose: 400.0 mg/kg/injection, schedule: Q04DX002 (ip), vehicle: saline with Tween-80): 106 % of control

CCN(C(=O)c1ccccc1Cl)C(c1ccco1)P(=O)(c1ccccc1)c1ccccc1 (stereo not given)
T/C (endpoint: mean survival time, dose: 100.0 mg/kg/injection, schedule: Q01DX009 (ip), vehicle: saline with Tween-80): 90 % of control
T/C (endpoint: mean survival time, dose: 200.0 mg/kg/injection, schedule: Q01DX009 (ip), vehicle: saline with Tween-80): 107 % of control

COc1cccc2c1[C@H]1CO[C@H]3C4C[C@H](C(=O)O)C([C@@H](C2)N13)N4C (stereo not given in full)
T/C (endpoint: median survival time, dose: 0.31 mg/kg/injection, schedule: Q01DX005 (ip), vehicle: water): 90 % of control
T/C (endpoint: median survival time, dose: 0.62 mg/kg/injection, schedule: Q01DX005 (ip), vehicle: water): 101 % of control
T/C (endpoint: median survival time, dose: 1.25 mg/kg/injection, schedule: Q01DX005 (ip), vehicle: water): 102 % of control
T/C (endpoint: median survival time, dose: 2.5 mg/kg/injection, schedule: Q01DX005 (ip), vehicle: water): 112 % of control
T/C (endpoint: median survival time, dose: 5.0 mg/kg/injection, schedule: Q01DX005 (ip), vehicle: water): 121 % of control

CCO[Si](C)(CCCOCC1CO1)OCC (stereo not given)
T/C (endpoint: mean survival time, dose: 50.0 mg/kg/injection, schedule: Q01DX009 (ip), vehicle: Klucel (hydroxypropylcellulose) (HPC)): 102 % of control
T/C (endpoint: mean survival time, dose: 100.0 mg/kg/injection, schedule: Q01DX009 (ip), vehicle: Klucel (hydroxypropylcellulose) (HPC)): 100 % of control
T/C (endpoint: mean survival time, dose: 200.0 mg/kg/injection, schedule: Q01DX009 (ip), vehicle: Klucel (hydroxypropylcellulose) (HPC)): 94 % of control

CC1CCC2(OC1)OC1C(O)C3C4CCC5CC(OC6OC(CO)C(OC7OC(CO)C(O)C(OC8OCC(O)C(O)C8O)C7OC7OC(CO)C(O)C(OC8OC(CO)C(O)C(O)C8O)C7O)C(O)C6O)C(O)CC5(C)C4CCC3(C)C1C2C (stereo not given)
T/C (endpoint: mean survival time, dose: 5.0 mg/kg/injection, schedule: Q01DX009 (ip), vehicle: saline): 92 % of control
T/C (endpoint: mean survival time, dose: 6.25 mg/kg/injection, schedule: Q01DX001 (ip), vehicle: saline with Tween-80): 96 % of control
T/C (endpoint: mean survival time, dose: 10.0 mg/kg/injection, schedule: Q01DX009 (ip), vehicle: saline): 93 % of control
T/C (endpoint: mean survival time, dose: 12.5 mg/kg/injection, schedule: Q01DX001 (ip), vehicle: saline with Tween-80): 103 % of control
T/C (endpoint: mean survival time, dose: 20.0 mg/kg/injection, schedule: Q01DX009 (ip), vehicle: saline): 96 % of control
T/C (endpoint: mean survival time, dose: 25.0 mg/kg/injection, schedule: Q01DX001 (ip), vehicle: saline with Tween-80): 100 % of control
T/C (endpoint: mean survival time, dose: 40.0 mg/kg/injection, schedule: Q01DX009 (ip), vehicle: saline): 102 % of control
